Experimental data taken from PMC11855478, “Bicyclic N,S-Acetals Containing Fused Cysteine-Amide System as New Heterocyclic Class Targeting Human Farnesyltransferase (FTase-h)” (International Journal of Molecular Sciences, 2025).

Columns and labels:
Type in all cases: cell-based, human
[1] = system: CCRF-CEM (Leukemia); assay: NCI one dose, CCRF-CEM; conditions: 1.00E-5 Molar one dose
How it was run: (§1)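 48 h continuous compound exposure in the NCI 60 human cancer cell line screen, followed by sulforhodamine B measurement of cytotoxicity.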

[2] = system: K-562 leukaemia cells; assay: NCI one dose, K-562; conditions: K-562, 1.00E-5 Molar one dose
How it was run: as §1

[3] = system: RPMI-8226 (Leukemia); assay: NCI one dose, RPMI-8226; conditions: RPMI-8226, 1.00E-5 Molar one dose
How it was run: as §1

[4] = system: SR (Leukemia); assay: NCI one dose, SR; conditions: 1.00E-5 Molar one dose
How it was run: as §1

[5] = system: A549/ATCC (Non-Small Cell Lung Cancer); assay: NCI one dose, A549/ATCC; conditions: 1.00E-5 Molar one dose
How it was run: as §1

[6] = system: EKVX (Non-Small Cell Lung Cancer); assay: NCI one dose, EKVX; conditions: 1.00E-5 Molar one dose
How it was run: as §1

[7] = system: HOP-92 (Non-Small Cell Lung Cancer); assay: NCI one dose, HOP-92; conditions: HOP-92, 1.00E-5 Molar one dose
How it was run: as §1

[8] = system: NCI-H23 (Non-Small Cell Lung Cancer); assay: NCI one dose, NCI-H23; conditions: NCI-H23, 1.00E-5 Molar one dose
How it was run: as §1

[9] = system: NCI-H322M (Non-Small Cell Lung Cancer); assay: NCI one dose, NCI-H322M; conditions: 1.00E-5 Molar one dose
How it was run: as §1

[10] = system: COLO 205 (Colon Cancer); assay: NCI one dose, COLO 205; conditions: COLO 205, 1.00E-5 Molar one dose
How it was run: as §1

[11] = system: HCC-2998 (Colon Cancer); assay: NCI one dose, HCC-2998; conditions: HCC-2998, 1.00E-5 Molar one dose
How it was run: as §1

[12] = system: HCT-116 (Colon Cancer); assay: NCI one dose, HCT-116; conditions: HCT-116, 1.00E-5 Molar one dose
How it was run: as §1

[13] = system: KM12 (Colon Cancer); assay: NCI one dose, KM12; conditions: KM12, 1.00E-5 Molar one dose
How it was run: as §1

[14] = system: SW-620 (Colon Cancer); assay: NCI one dose, SW-620; conditions: SW-620, 1.00E-5 Molar one dose
How it was run: as §1

[15] = system: SF-268 (CNS Cancer); assay: NCI one dose, SF-268; conditions: SF-268, 1.00E-5 Molar one dose
How it was run: as §1

[16] = system: SF-295 (CNS Cancer); assay: NCI one dose, SF-295; conditions: SF-295, 1.00E-5 Molar one dose
How it was run: (§2)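 Sulforhodamine B protein staining measured cell growth after cells from the NCI 60-line panel were exposed to compound for 48 h.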

[17] = system: SNB-75 (CNS Cancer); assay: NCI one dose, SNB-75; conditions: SNB-75, 1.00E-5 Molar one dose
How it was run: as §1

[18] = system: U251 (CNS Cancer); assay: NCI one dose, U251; conditions: U251, 1.00E-5 Molar one dose
How it was run: as §1

[19] = system: LOX IMVI (Melanoma); assay: NCI one dose, LOX IMVI; conditions: 1.00E-5 Molar one dose
How it was run: as §1

[20] = system: MALME-3M (Melanoma); assay: NCI one dose, MALME-3M; conditions: 1.00E-5 Molar one dose
How it was run: as §2

[21] = system: M14 (Melanoma); assay: NCI one dose, M14; conditions: M14, 1.00E-5 Molar one dose
How it was run: as §1

[22] = system: MDA-MB-435 (Melanoma); assay: NCI one dose, MDA-MB-435; conditions: MDA-MB-435, 1.00E-5 Molar one dose
How it was run: as §2

[23] = system: SK-MEL-2 (Melanoma); assay: NCI one dose, SK-MEL-2; conditions: SK-MEL-2, 1.00E-5 Molar one dose
How it was run: as §1

[24] = system: SK-MEL-28 (Melanoma); assay: NCI one dose, SK-MEL-28; conditions: SK-MEL-28, 1.00E-5 Molar one dose
How it was run: as §1

[25] = system: IGROV1 (Ovarian Cancer); assay: NCI one dose, IGROV1; conditions: IGROV1, 1.00E-5 Molar one dose
How it was run: as §1

[26] = system: OVCAR-4 (Ovarian Cancer); assay: NCI one dose, OVCAR-4; conditions: OVCAR-4, 1.00E-5 Molar one dose
How it was run: as §1

[27] = system: OVCAR-8 (Ovarian Cancer); assay: NCI one dose, OVCAR-8; conditions: OVCAR-8, 1.00E-5 Molar one dose
How it was run: as §2

[28] = system: NCI/ADR-RES (Ovarian Cancer); assay: NCI one dose, NCI/ADR-RES; conditions: 1.00E-5 Molar one dose
How it was run: as §1

[29] = system: 786-0 (Renal Cancer); assay: NCI one dose, 786-0; conditions: 786-0, 1.00E-5 Molar one dose
How it was run: as §1

[30] = system: A498 (Renal Cancer); assay: NCI one dose, A498; conditions: A498, 1.00E-5 Molar one dose
How it was run: as §1

[31] = system: CAKI-1 (Renal Cancer); assay: NCI one dose, CAKI-1; conditions: CAKI-1, 1.00E-5 Molar one dose
How it was run: as §1

[32] = system: RXF 393 (Renal Cancer); assay: NCI one dose, RXF 393; conditions: RXF 393, 1.00E-5 Molar one dose
How it was run: as §1

[33] = system: UO-31 renal cancer cells; assay: NCI one dose, UO-31; conditions: UO-31, 1.00E-5 Molar one dose
How it was run: as §1

[34] = system: PC-3 (Prostate Cancer); assay: NCI one dose, PC-3; conditions: PC-3, 1.00E-5 Molar one dose
How it was run: as §1

[35] = system: DU-145 (Prostate Cancer); assay: NCI one dose, DU-145; conditions: DU-145, 1.00E-5 Molar one dose
How it was run: as §1

[36] = system: MCF7 (Breast Cancer); assay: NCI one dose, MCF7; conditions: MCF7, 1.00E-5 Molar one dose
How it was run: as §1

[37] = system: MDA-MB-231/ATCC (Breast Cancer); assay: NCI one dose, MDA-MB-231/ATCC; conditions: 1.00E-5 Molar one dose
How it was run: as §1

[38] = system: HS 578T (Breast Cancer); assay: NCI one dose, HS 578T; conditions: 1.00E-5 Molar one dose
How it was run: as §1

[39] = system: T-47D (Breast Cancer); assay: NCI one dose, T-47D; conditions: 1.00E-5 Molar one dose
How it was run: as §2

Structure (SMILES) | Growth Percent [1] | Growth Percent [2] | Growth Percent [3] | Growth Percent [4] | Growth Percent [5] | Growth Percent [6] | Growth Percent [7] | Growth Percent [8] | Growth Percent [9] | Growth Percent [10] | Growth Percent [11] | Growth Percent [12] | Growth Percent [13] | Growth Percent [14] | Growth Percent [15] | Growth Percent [16] | Growth Percent [17] | Growth Percent [18] | Growth Percent [19] | Growth Percent [20] | other results
COc1cc(CNC(=O)[C@@H]2CS[C@@]3(C)c4ccccc4C(=O)N23)cc(OC)c1OC [4bJ] | 90.73% | 71.92% | 90.22% | 77.35% | 83.12% | 108.30% | 88.36% | 96.92% | 99.71% | 105.48% | 95.49% | 98.10% | 106.18% | 100.88% | 101.09% | 103.92% | 97.50% | 82.69% | 105.04% | 108.52% | Growth Percent [21]: 108.34%; Growth Percent [22]: 104.68%; Growth Percent [23]: 89.27%; Growth Percent [24]: 103.28%; Growth Percent [25]: 106.56%; Growth Percent [26]: 97.02%; Growth Percent [27]: 92.35%; Growth Percent [28]: 101.60%; Growth Percent [29]: 102.08%; Growth Percent [30]: 90.55%; Growth Percent [31]: 89.81%; Growth Percent [32]: 98.72%; Growth Percent [33]: 90.29%; Growth Percent [34]: 89.97%; Growth Percent [35]: 108.72%; Growth Percent [36]: 93.75%; Growth Percent [37]: 98.30%; Growth Percent [38]: 94.07%; Growth Percent [39]: 87.15%
C[C@@]12SC[C@@H](C(=O)NCc3cccc(C(F)(F)F)c3)N1C(=O)c1ccccc12 [4bD] | 89.45% | 81.47% | 85.05% | 75.10% | 77.57% | 98.64% | 88.94% | 99.06% | 100.14% | 104.27% | 110.65% | 87.94% | 99.50% | 108.66% | 102.43% | 92.24% | 93.18% | 94.94% | 100.31% | 99.33% | Growth Percent [21]: 103.59%; Growth Percent [22]: 102.18%; Growth Percent [23]: 85.25%; Growth Percent [24]: 108.59%; Growth Percent [25]: 99.72%; Growth Percent [26]: 89.60%; Growth Percent [27]: 92.35%; Growth Percent [28]: 100.57%; Growth Percent [29]: 100.40%; Growth Percent [30]: 85.48%; Growth Percent [31]: 80.18%; Growth Percent [32]: 105.49%; Growth Percent [33]: 81.22%; Growth Percent [34]: 92.84%; Growth Percent [35]: 108.47%; Growth Percent [36]: 85.93%; Growth Percent [37]: 97.63%; Growth Percent [38]: 96.99%; Growth Percent [39]: 89.18%
